The source of these data is patent US12286632B2, “Rationally-designed synthetic peptide shuttle agents for delivering polypeptide cargos from an extracellular space to the cytosol and/or nucleus of a target eukaryotic cell, uses thereof, methods and kits relating to same” (Feldan Bio Inc., priority 2016, dated 2025).

The subject of one data set is B2M genomic DNA sequence. The data set is described as follows: T7E1 DNA cleavage assay / % INDELs after CRISPR/Cas9-NLS or CRISPR/Cpf1-NLS delivery (HeLa, THP-1, NK, T cells). The data set is classed as cell-based, Human. As to conditions: CRISPR/Cpf1 1.33 μM, crRNA 2 μM; THP-1 and NK cells; different concentrations and exposure times. From the text: The T7 endonuclease I (T7E1) can be used to detect on-target CRISPR/Cas genome editing events in cultured cells. As an overview, genomic DNA from target cells is amplified by PCR. The PCR products are then denatured and reannealed to allow heteroduplex formation between wild-type DNA and CRISPR/Cas-mutated DNA. T7E1, which recognizes and cleaves mismatched DNA, is used to digest the heteroduplexes. The resulting cleaved and full-length PCR products are visualized by gel electrophoresis.
The T7E1 assay was performed with the Edit-R™ Synthetic crRNA Positive Controls (Dharmacon #U-007000-05) and the T7 Endonuclease I (NEB, Cat #M0302S). After the delivery of the CRISPR/Cas complex, cells were lysed in 100 μL of Phusion™ High-Fidelity DNA polymerase (NEB #M0530S) laboratory with additives. The cells were incubated for 15-30 minutes at 56° C., followed by deactivation for 5 minutes at 96° C. The plate was briefly centrifuged to collect the liquid at bottom of the wells. 50-μL PCR samples were set up for each sample to be analyzed. The PCR samples were heated to 95° C. for 10 minutes and then slowly (>15 minutes) cooled to room temperature. PCR product (-5 μL) was then separated on an agarose gel (2%) to confirm amplification. 15 μL of each reaction was incubated with T7E1 nuclease for 25 minutes at 37° C. Immediately, the entire reaction volume was run with the appropriate gel loading buffer on an agarose gel (2%).
Cas9-NLS recombinant protein was prepared as described in Example 13.1. Cpf1-NLS recombinant protein was prepared as described in Example G.2. A mix composed of a Cas9-NLS recombinant protein with its respective crRNAltracrRNA, or a Cpf1-NLS recombinant protein with its respective single guide crRNA(s) (see below) targeting a nucleotide sequence of the B2M gene, was co-incubated with different concentrations of the peptides FSD10, FSD18, FSD19, FSD21, FSD22, or FSD23 and incubated with HeLa, THP-1 or NK cells for 90 sec in PBS, or for 1 h in medium without serum, or for 48 h in medium with serum, using the transduction protocols as generally described in Example 3.1a. Cells were then washed with PBS and harvested to proceed with the T7E1 protocol assay as described in Example 13.4.
FIGS. 52A-52D show the results of the cleavage of the targeted genomic B2M DNA sequence after the delivery of CRISPR/Cpf1 (1.33 μM) with crRNA−1 or crRNA−2 (2 μM) in the absence (“-ctrl”) or in the presence of the peptides FSD10, FSD18, FSD19, FSD21 or FSD23 used at different concentrations, exposure times, and in different types of cells: THP-1 (FIG. 52A), and NK (FIGS. 52B, 52C, 52D), after separation by agarose gel electrophoresis. […] Gel lanes were loaded in duplicate. Thin dashed arrows indicate the bands corresponding to the target gene, and thick solid arrows indicate the bands corresponding to the cleavage products of this target gene, which indicate the successful transduction of fully functional CRISPR genome editing complexes. We used a Bio-Rad ImageLab™ software (Version 5.2.1, Bio-Rad, http://www.bio-rad.com/en-ca/product/image-lab-software?tab=Download) to quantify the relative signal intensities of each of the different bands directly on the gels. The sum of all the bands in a given lane corresponds to 100% of the signal, and the numerical value in italics at the bottom of each lane is the sum of the relative signals (%) of only the two cleavage product bands (thick solid arrows). No cleavage product bands were found in the negative controls (“-ctrl”, i.e., to cells that were exposed to CRISPR system in the absence of FSD peptide).
Cas9-NLS recombinant protein was prepared as described in Example 13.1. Cpf1-NLS recombinant protein was prepared as described in Example G.2. […]

For data set [1], the system named is HeLa cells. The data set is described as follows: GFP-NLS protein transduction assay (flow cytometry: Pos cells %, viability %, relative fluorescence intensity; microscopy). Particulars: Table B2; HeLa cells, GFP-NLS cargo. On the technique in general: Flow cytometry measures light scatter and fluorescence of single cells or particles in a stream.
A further data set has as its system THP-1 cells. The data set is described as follows: Cleaved PARP ELISA assay after transduction of anti-Active Caspase 3 or anti-TNF antibody (± actinomycin D). Particulars: FSD23 7.5 μM, 5 min. In kind it is cell-based, human. Here is the method: (§1) A monoclonal (mAb) and a polyclonal (pAb) anti-Active Caspase 3 antibodies […] were independently co-incubated with THP-1 and Jurkat cells for 5 min in the presence of FSD23 at 7.5 μM. The anti-apoptotic effect of each antibody was assessed via the level of Caspase 3-activated apoptosis with an ELISA cleaved PARP assay and quantified by spectrometry as described below.
(§2) The day of the experiment, cells in exponential growth phase were harvested, centrifugated (400g for 3 min) and resuspended in serum-free RPMI in a 96-well plate (500,000 cells in 150 μL per well). Cells were centrifugated and incubated for 5 min with a mix composed by the peptide to be tested (7.5 μM) and 2 μg of the antibody to be transduced. Cells were centrifuged and resuspended in RPMI with serum in a 24-well plate for 1 h at 37° C. Actinomycin D (2 μg/mL), a cytotoxic inducer of apoptosis, was incubated with the cells for 4 h. Cells were washed with cold PBS and tested using the PARP (Cleaved) [214/215]Human ELISA Kit (ThermoFisher) according to the manufacturer's instructions followed by spectroscopy analysis. […]
In general terms: ELISA stands for enzyme-linked immunosorbent assay.

The next data set relates to NK-92 cells. Kind of data set: NKG2A gene inactivation by delivered CRISPR/Cpf1-NLS: PE anti-NKG2A immunolabelling, FACS. The data set is classed as cell-based, Human. Particulars: FSD23 6 μM; Cpf1-NLS 1.5 μM; 90 sec; 48 h. How it is done:
Genome editing was performed in NK-92 cells to evaluate whether inactivation of the endogenous NKG2A gene could increase the cytotoxicity of the NK-92 cells. Briefly, one million NK-92 cells were incubated with Cpf1-NLS (1.5 μM) gRNA complex targeting the NKG2A gene and with FSD23 (6 μM) for 90 sec. After transduction, cells were incubated in complete medium with IL-2 (20 ng/mL) for 48 h at 37° C. NK-92 cells were then immunolabelled with a phycoerythrin (PE)-labelled anti-NKG2A antibody (Miltenyi Biotec #CD159a) following the manufacturer recommendations. NK-92 cells were then analyzed with FACS and scored as a function of their anti-NKG2A detection (PE fluorescence) level and the results are shown in FIG. 57A. As controls, unlabelled wild-type NK-92 cells (“unlabelled WT cells”) had no antibody signal, and labelled wild-type NK-92 cells (“labelled WT cells”) had full immunolabelling signal.

The next data set concerns Jurkat cells. Kind of data set: Cleaved PARP ELISA assay after transduction of anti-Active Caspase 3 or anti-TNF antibody (± actinomycin D). In kind it is cell-based, Human. As to conditions: FSD23 7.5 μM, 5 min. Here is the method:
as §1, §2

The subject of data set [2] is HeLa cells. Kind of data set: Plasmid DNA (pEGFP-C1) transfection by peptides (% cells with GFP signal, cell viability). Particulars: DNA transfection in HeLa cells using peptides; pEGFP-C1 plasmid.
Data set [3] can be described thus: in vitro. As to conditions: human, HeLa cells, Cell viability (%) (±St Dev.; n = 3).
Data set [4] is described as follows: in vitro. As to conditions: human, HeLa cells.

Ends that are not written are not given here.

As to “HHHHHHLLKLWSRLLKEWTQGRRLEAKRAEAHHHHHH [FSD23]”, the “delivery of CRISPR/Cpf1 complex, cleavage of genomic B2M (in words)” value in the data set with B2M genomic DNA sequence is “successful delivery of the CRISPR genome-editing complexes to the nucleus”. Besides, the “Mean % cells with GFP signal (±St. Dev.; n = 3)” value in the data set on HeLa cells [1] is given as 50.34 ± 4.29%; in the data set on HeLa cells [2] it was 0.04 ± 0.00%. Also, the “transduction of functional anti-Active Caspase 3 antibodies (cleaved PARP, in words)” value in the data set on THP-1 cells and with Jurkat cells was “successfully transduced functional anti-Active Caspase 3 antibodies” each time. Moreover, the “NKG2A receptor expression on the cell surface after genome editing” value with NK-92 cells is “two cell populations (peaks) were observed”. Moreover, the viability in the data set “in vitro [3]” is 65.3 ± 5.44%; in “in vitro [4]”, 98.2 ± 1.03%.

The viability is a per cent measure of how many cells are alive, often set against a control.
